Measurements: patent US20090131500A1, “PORPHYRIN DERIVATES AND THEIR USE AS PHOTOSENSITIZERS IN PHOTODYNAMIC THERAPY” (priority 2006, published 2009)

Legend:
Assay type in all cases: physicochemical
[1] = Ground state absorption spectrum
Method: (§1) The ground state absorption spectra were recorded at room temperature using a commercial spectrophotometer Shimadzu UV-2501PC. Steady-state fluorescence spectra were measured in 1 cm×1 cm quartz optical cells using a combination of a cw-Xenon lamp (XBO 150) and a monochromator (Lot-Oriel, bandwidth 10 nm) for excitation and a polychromator with a cooled CCD matrix as a detector system (Lot-Oriel, Instaspec IV).

[2] = Steady-state fluorescence spectrum (fluorescence quantum yield)
Method: as §1

[3] = Time-resolved singlet oxygen luminescence at 1270 nm (singlet oxygen quantum yield); conditions: excitation at 510 nm, Pheo as reference
Method: Photosensitizer-generated time-resolved singlet oxygen luminescence was measured at 1270 nm. A nanosecond Nd-YAG laser (BMI) equipped with an OPO (BMI) was used to excite the samples at 510 nm and the luminescence signal was recorded by a germanium pin diode (Northcoast). To calculate the singlet oxygen quantum yield, (DA, the solution of Pheo in DMF as well as in ethanol were used as reference (ΦΔ^Pheo=0.52).

[4] = Transient absorption spectra (ISC / triplet quantum yield)
Method: To measure transient absorption spectra (TAS), a white light continuum was generated as a test beam in a cell with D2O/H2O mixture using intense 25 ps single pulses from a Nd:YAG laser (Ekspla) at 1064 nm. Before passing through the sample, the continuum radiation was split to get a reference spectrum. The transmitted as well as the reference beam were focused into two optical fibers and were recorded simultaneously at different traces on a CCD-matrix (Lot-Oriel, Instaspec IV). The tunable radiation of a OPO/OPG (Ekspla, tuning range 210-2300 nm) pumped by the third harmonic of the same laser was used for excitation of the samples. The mechanical delay line allowed measuring the light-induced changes in the absorption spectrum at different time delays up to 15 ns after excitation.

Substance: 5^4, 10^4, 15^4, 20^4-tetra-t-butyl[3,5^2]-ethano-5^6-methyl-3^1-oxo-5,10,15,20-tetraphenylporphyrin [FB-1-CO]
- absorption band of the first excited singlet state ([1]; in ethanol (FIG. 1)): 690 nm
- Qy-absorption at λ ([1]; room temperature): 690 nm
- fluorescence quantum yield ΦFl [2]: 0.02
- singlet oxygen quantum yield ΦΔ [3]: 0.9
- ISC quantum yield ΦISC [4]: 0.95±0.05
